# In PMC12114375, “Discovery of Hydrazineyl Amide Derivative of Pseudolaric Acid B for Reprogramming Tumor-Associated Macrophages Against Tumor Growth” (Molecules, 2025):
# Key:
# Assay type in all cases: cell-based, mouse
# [1] = tested on: NOS2 mRNA expression in RAW 264.7 cells; test: qRT-PCR of NOS2 mRNA in IL-4/IL-13-stimulated RAW 264.7 cells; conditions: Mus musculus, RAW264.7, IL-4/IL-13 (20 ng/mL) plus compound 10 μM, 12 h, stimulated control = 100%, mean ± SD, read-out: NOS2 mRNA Relative Expression (%)
# Excerpt: (§1) We first investigated the impacts of a series of commercially available natural pseudolaric acids or their O-pyranosides (Figure 1) on the pro-tumoral phenotype of TAMs, which play a critical role in anti-tumor immune response modulation. […] In contrast, M1-biased macrophages combat tumor growth and bacterial infections by expressing inducible nitric oxide synthase 2 (NOS2), which catalyzes the production of nitric oxide (NO). Recognizing the pivotal roles of ARG1 and NOS2, we utilized these molecules as key biomarkers and effectors for assessing macrophage immune function. In our experiments, the mouse monocyte–macrophage leukemia cell line RAW 264.7 was induced with IL-4/IL-13 to acquire an M2-like pro-tumoral phenotype. Concurrently, the cells were treated with the pseudolaric acid-related natural products 1–7 at a concentration of 10 μM for 12 h. Additionally, PLX3397 was used as a positive control at a concentration of 0.5 μM. […] As shown in Table 1 and Figure S1A, pseudolaric acid B (1), its deacetoxyl analogue 2 (pseudolaric acid C), and β-D-glucoside 7 substantially attenuated the upregulation of ARG1 mRNA expression induced by IL-4/IL-13, with statistically significant effects. In contrast, bis-carboxylic acids analogs 4 (pseudolaric acid C2) and 6 (demethoxydeacetoxypseudolaric acid B) have no significant impact on ARG1 mRNA expression.
# (§2) With these carboxylic acid-modified derivatives in hand, we investigated their impact at 10 μM on ARG1 and NOS2 mRNA expression in RAW 264.7 cells pre-stimulated with IL-4/IL-13 to evaluate the effects on the pro-tumor phenotype of macrophages. […] Further removal of one hydroxyl from the glycerol moiety 15 further enhanced the inhibitory effect on ARG1 expression but had no significant impact on NOS2 expression.
# (§3) Total RNA was isolated from cells using the EZ-press RNA Purification Kit (EZBioscience, Suzhou, China) and subjected to reverse transcription with the 5×HiScript II qRT SuperMix II (Vazyme, Nanjing, China). PCR was performed with the 2×ChamQ Universal SYBR qPCR Master Mix (Vazyme, Nanjing, China). All primers for qRT-PCR are described in Table S1. The 2^−∆∆Ct method was utilized to calculate the fold change in gene expression, with the expression levels in the stimulated group set as the baseline for normalization.
# [2] = tested on: ARG1, NOS2, CD206 and MHC II mRNA expression in RAW 264.7 cells; test: qRT-PCR of ARG1, NOS2, CD206, MHC II in RAW264.7 cells at multiple concentrations; conditions: RAW 264.7 cells stimulated with IL-4/IL-13, multiple concentrations, 12 h
# Experimental: We also extended the test to primary murine macrophages derived from bone marrow (BMDMs), which were cultured in vitro with recombinant mouse M-CSF for 6 days. The BMDMs were then stimulated with IL-4/IL-13, leading to their transformation into M2-like pro-tumoral macrophages. This transformation was characterized by an increase in both ARG1 and CD206 expression and a decrease in both NOS2 and MHC II expression. […] Subsequently, we assessed the capacity of compound 12 to inhibit the M2-like polarization of macrophages using CSF-1-differentiated mouse BMDMs. These cells were treated with IL-4 and IL-13 for 48 h, and the expression levels of CD206, an M2-type marker, and CD86, an M1-type marker, were analyzed via flow cytometry. […]
# Figure 2 Compound 12 inhibits the M2-like polarized phenotype of macrophages. […] The expression levels of the markers CD206 and CD86 on induced macrophages were determined by flow cytometry, and the mean fluorescence intensity (MFI) was analyzed with FlowJo (C), or the cells were lysed and immunoblotted to detect the indicated proteins (D). […] Data are represented as means ± SD. ^### p < 0.001 vs. non-stimulated control group, * p < 0.05, ** p < 0.01, *** p < 0.001 vs. stimulated control group. p-values were determined using one-way ANOVA.
# [3] = tested on: Raw264.7 cells; test: Cell viability (CCK-8) of RAW264.7 cells; conditions: IL-4/IL-13 plus compound 10 μM, 12 h
# Experimental: Cells were seeded in 96-well tissue culture plates. On the next day, cells were exposed to various concentrations of compounds and further cultured for the indicated period. Finally, cell proliferation was determined by using the Cell Counting Kit (CCK-8) (Dojindo, Kumamoto, Japan) assay.
# Figure S2. Effects of natural pseudolaric acids 1-4, 6 and their O-pyranosides 5, 7 as well as the derivatives 8-18 o f 1 on Raw264.7 cell viability. Raw264.7 cells were treated with IL-4/IL-13 alone or combined with indicated compounds (10 μM) for 12 h. After incubation, the cell viability was determined using a cell counting kit (CCK-8, Dojindo, Japan) assay.
# (1 picture or pasted object on this page, not shown here)
# [4] = tested on: ARG1 mRNA expression in RAW 264.7 cells; test: qRT-PCR of ARG1 mRNA in IL-4/IL-13-stimulated RAW 264.7 cells; conditions: Mus musculus, RAW264.7, IL-4/IL-13 (20 ng/mL) plus compound 10 μM, 12 h, stimulated control = 100%, mean ± SD, read-out: ARG1 mRNA Relative Expression (%)
# Excerpt: as §1, §2, §3
structure (smiles),measurement,setting,value
"COC(=O)C1=CC[C@@]23CC[C@@H]([C@@](C)(/C=C/C=C(\C)C(=O)O)OC2=O)[C@@]3(OC(C)=O)CC1 [compound 1, pseudolaric acid B]",activity at 10 µM,[1],135 ± 19.5%
same,mRNA expression levels of ARG1 and CD206,[2],significantly reduced
same,mRNA expression levels of NOS2 and MHC II,[2],upregulated the mRNA expression levels of NOS2 and MHC II in a dose-dependent manner
same,cell viability,[3],only a minimal reduction in cell viability
same,mrna remaining at 10 µM,[4],9.9 ± 0.8%
